Measured values reported in patent publication US10578612B2, “Diagnostic assay” (priority 2010, dated 2020).
Values joined by “and” are separate entries in the source; they are usually repeats but may differ in a detail not shown here. Equal values may be shown once. Bridge positions count the residues as written; N and C are the ends. Square brackets hold non-standard residues; d marks the D form. Peptide text beside a SMILES is read from it. * marks the point of attachment. Octanoyl(6-Me) = CCC(C)CCCCC(=O)*; Dab = NCC[CH](N)C(=O)O

Key:
Type in all cases: cell-based, human
[1] = tested on: IFN-γ production in blood (CMV antigen); experiment: Effect of polymyxin B on IFN-γ production in blood in QuantiFERON-CMV tubes (Example 2)
Protocol: The effect of polymyxin B on IFN-γ production was assessed. Blood from 8 healthy donors was added to QuantiFERON-CMV blood collection tubes (1.0 mL per tube). One tube for each donor had 1.0 μg/mL of polymyxin B added, whilst the second tube served as a control. Blood was incubated at 37° C. for 20 hours before the tubes were centrifuged and the resultant concentration of IFN-γ determined by ELISA.

[2] = tested on: non-specific IFN-γ production in blood from BD heparin tube (endotoxin contamination); experiment: Polymyxin B in endotoxin-contaminated BD heparin tubes, IFN-γ assay (Example 4)
Protocol: Blood was taken from four healthy donors collected in Li-Heparin tubes. […] Tubes were mixed to resolublize the heparin and to ensure blood contact with tube plastic.
Aliquots of 1.0 mL from each heparin tube type were then transferred to 13/75 mm plain gel tubes. The blood was then incubated at 37° C. for 20 hours before the tubes were centrifuged and the IFN-γ concentration of the plasma determined by ELISA.

[3] = tested on: non-specific IFN-γ production in blood containing lipopolysaccharides (LPS); experiment: Effect of polymyxin B on non-specific IFN-γ production in blood containing LPS (Example 3)
Protocol: In this Example, blood from 8 healthy donors was collected in Li-Heparin tubes. Aliquots of 1.0 mL were prepared in 13/75 mm plain gel tubes. An endotoxin, lipopolysaccharides (LPS), was added to each tube of blood at a concentration of 1 μg/mL. Various concentrations of polymyxin B were added to each of the tubes. The blood was then incubated at 37° C. for 20 hours before the tubes were centrifuged and the IFN-γ concentration of the plasma determined by ELISA.

[4] = tested on: IFN-γ production in stimulated whole blood
[5] = tested on: immune response to lipopolysaccharide (LPS), IFN-γ in blood; experiment: Effect of sushi peptide on immune response of blood to LPS (Example 6, FIGS. 1-2); conditions: sushi peptide 0-10 μg/ml, antigens CMV and tetanus toxoid, FIGS. 2a-2c
Protocol: Heparinized blood samples were collected into Li-Hep Vacuette (registered trade mark) tubes (Greiner Bio-one, Germany).
Aliquots of 1 ml of the blood samples were incubated with various concentrations of Lipopolysaccharide (Sigma, Australia) and a sushi peptide ([…]) [SEQ ID NO:1] (American Peptide Company, California) in nil blood collection tubes (QuantiFERON [registered trade mark]-TB Gold In-Tube, Cellestis Ltd, Australia) either as supplied or spiked with tetanus toxoid (1001 fu/ml), or in CMV tubes (QuantiFERON-CMV, Cellestis Ltd, Australia).
Stimulated blood samples were incubated for 16-24 hr at 37° C., after which the tubes were centrifuged and the plasma harvested. The amount of IFN-γ present in each plasma sample was then quantified using the QuantiFERON (registered trade mark)-TB Gold ELISA (Cellestis Limited, Australia) as per the manufacturer's instructions.
ELISA optical density values for IFN-γ standards run on each ELISA plate were used to construct a standard curve from which the amount of IFN-γ present in each of the test plasma samples was converted to IU/mL values.

CCC(C)CCCCC(=O)NC(CCN)C(=O)NC(C(=O)NC(CCN)C(=O)NC1CCNC(=O)C(C(C)O)NC(=O)C(CCN)NC(=O)C(CCN)NC(=O)C(CC(C)C)NC(=O)C(Cc2ccccc2)NC(=O)C(CCN)NC1=O)C(C)O (stereo not drawn) [polymyxin B, N-[4-amino-1-[[1-[[4-amino-1-oxo-1-[[6,9,18-tris(2-aminoethyl)-15-benzyl-3-(1-hydroxyethyl)-12-(2-methylpropyl)-2,5,8,11,14,17,20-heptaoxo-1,4,7,10,13,16,19-heptazacyclotricos-21-yl]amino]butan-2-yl]amino]-3-hydroxy-1-oxobutan-2-yl]amino]-1-oxobutan-2-yl]-6-methyloctanamide] ({Octanoyl(6-Me)}-[Dab]T[Dab][Dab][Dab]FL[Dab][Dab]T; lactam 4-C; configuration not given here)
effect on the production of IFN-γ ([1]; 1 μg/mL polymyxin B, CMV antigen): does not adversely affect the production of IFN-γ | IFN-γ concentration, CMV + PMB 1.0 μg/mL ([1]; QuantiFERON-CMV tube, 1.0 μg/mL polymyxin B, 37° C. 20 hours, ELISA, one line per subject): 8.35 IU/mL and 0.04 IU/mL (2×) and 0.08 IU/mL and 0.51 IU/mL and 1.53 IU/mL and 24.28 IU/mL and 0.05 IU/mL and 2.3 IU/mL and 0.55 IU/mL | effect on non-specific IFN-γ production in BD heparin tubes ([2]; 100 ug/mL polymyxin B, BD heparin tubes known to contain endotoxin): significantly reduced | IFN-gamma, BD Heparin Tube + 100 μg/mL Polymyxin B ([2]; blood from BD heparin tube (endotoxin contaminated) with 100 μg/mL polymyxin B, 37° C. 20 hours, one line per subject): 0.51 IU/mL and 0.11 IU/mL (2×) and 0.24 IU/mL | IFN-γ concentration, 1 μg/mL LPS, polymyxin 0.1 ug/mL ([3]; blood + 1 μg/mL LPS, polymyxin B 0.1 ug/mL, 37° C. 20 hours, one line per subject): 0.67 IU/mL and 0.44 IU/mL and 9.28 IU/mL and 2.87 IU/mL and 0.32 IU/mL and 2.00 IU/mL and 0.79 IU/mL and 0.41 IU/mL | IFN-γ concentration, 1 μg/mL LPS, polymyxin 1 ug/mL ([3]; blood + 1 μg/mL LPS, polymyxin B 1 ug/mL, 37° C. 20 hours, one line per subject): 0.41 IU/mL and 0.22 IU/mL and 3.31 IU/mL and 2.57 IU/mL and 0.21 IU/mL and 1.17 IU/mL and 0.50 IU/mL and 0.14 IU/mL | IFN-γ concentration, 1 μg/mL LPS, polymyxin 10 ug/mL ([3]; blood + 1 μg/mL LPS, polymyxin B 10 ug/mL, 37° C. 20 hours, one line per subject): 0.25 IU/mL and 0.11 IU/mL (2×) and 1.96 IU/mL and 1.41 IU/mL and 0.36 IU/mL and 0.32 IU/mL and 0.12 IU/mL | IFN-γ concentration, 1 μg/mL LPS, polymyxin 100 ug/mL ([3]; blood + 1 μg/mL LPS, polymyxin B 100 ug/mL, 37° C. 20 hours, one line per subject): 0.02 IU/mL (3×) and 0.05 IU/mL (2×) and 0.04 IU/mL and 0.18 IU/mL and 0.06 IU/mL | effect on non-specific IFN-γ production ([3]; samples containing endotoxin (LPS 1 μg/mL)): caused a reduction in non-specific IFN-γ production

polyinosinic acid-polycytidylic acid [PolyI:C]
IFN-γ response to poly(I:C) alone [4]: relatively small | effect on IFN-γ production with antigen [4]: increases the IFN-γ production

HAEHKVKIGVEQKYGQFPQGTEVTYTCSGNYFLM (Sushi peptide)
effect on immune response to LPS [5]: inhibition of an immune response to lipopolysaccharide (LPS)
